Structures can show the parent of a compound that is named as a salt. Marks after values point to notes of the source that are not given here.
Tests used:
[1] = 1 gram/kg dose, fasting normal individual; cited from earlier work
[2] = system: Pdat-1::GFP+Pdat-1::α-synuclein+Pdat-1:: torsinA (ΔE) worms; assay: α-synuclein toxicity assay, mutant torsinA; assay type: in vivo, C. elegans
From the text: (§1) We have previously shown that torsinA can prevent dopamine (“DA”) neuron degeneration resulting from overexpression of α-synuclein in the DA neurons of C. elegans, while torsinA (“ΔE”) has a reduced neuroprotection (Cao et al., J Neurosci, 2005, 25(1): 3801-3812). Specifically, only 26.1±5.3% of the worms expressing Pdat-1::GFP+Pdat-1::α-synuclein maintained all 4 wildtype CEP DA neurons as 4 day adults while the percentages of the worms expressing Pdat-1::GFP+Pdat-1::α-synuclein+Pdat-1::torsinA and Pdat-1::GFP+Pdat-1::α-synuclein+Pdat-1:: torsinA (ΔE) are 57.3±1.6% and 42.2±7.3%, respectively (Cao et al., J Neurosci, 2005, 25(1): 3801-3812) (FIG. 8).
(§2) All molecules are coded by Prestwick Library number. TorsinA-dependent compounds identified from the aggregation assay have torsinA-specific effects and, therefore, are likely to function in the same manner in the α-synuclein toxicity assay. All three α-synuclein transgenic lines were exposed to the five torsinA-dependent compounds to determine their torsinA-specificity (FIG. 9). As expected, none of these compounds had any effect in Pdat-1::GFP+Pdat-1::α-synuclein when torsinA expression is absent.

[3] = system: Pdat-1::GFP+Pdat-1::α-synuclein+Pdat-1::torsinA worms; assay: α-synuclein toxicity assay, wt torsinA; assay type: in vivo, C. elegans
From the text: as §1, §2

[4] = system: worms expressing Punc-54::Q82::GFP+Punc-54::torsinA with wt torsinA only; assay: Protein aggregate assay in worms with wt torsinA only; assay type: in vivo, C. elegans
Protocol: (§3) C elegans nematodes were grown at 20° C. on NGM plates as described by Brenner (Brenner, Genetics, 1974, 77: 71-94). Several transgenic C. elegans lines were used for primary screens of the Prestwick small molecule library. A transgenic worm line expressing Punc-54::Q82-GFP; with both wild type (“wt”) (Punc=54: :torsinA) or mutant (Punc-54::torsinA(ΔE)). Torsin-A expresses a phenotype that results in visible protein aggregation under fluorescent microscope. Transgenic worms were plated on drug plates and progeny were studied for a return to soluble protein.
(§4) Drugs were administered to C. elegans according to a standard procedure (Rand and Johnson, Methods Cell Biol, 1995, 48: 187-204), by mixing the solubilized drug with the agar medium on which the worms are grown. This mode of administration allows the continuous exposure of worms to the drug.
Each drug was first dissolved in an appropriate solvent, followed by adding the drug solution into pre-autoclaved media, with the volume of drug solution already taken into account. […]
(§5) The screening assays used to identify the compounds use protein aggregation readouts to determine the specificities of molecular action. […]
(§6) The methods for the aggregate analysis assay are described in Caldwell et al. (Hum Mol Genetics, 2003, 12(3): 307-319). […] MetaMorph Software (Universal Imaging Inc.) was used for pseudocoloration of images, image overlay, and aggregate size quantitation. For each worm line analyzed, average aggregate size was determined by capturing images of all aggregates in the posterior region of 30 L3-staged animals (for Q82::GFP aggregates) or all aggregates in 30 adult animals/day (for Q19::GFP analyses) at 1000× magnification. […]
(§7) To see the effect of the candidate compounds on suppressing protein misfolding and aggregation, five gravid adult worms were placed onto each drug plate and grown at 20° C. for approximately 3 days. Thirty Fl worms at L3 stage and young adult stage were counted for aggregate number.

[5] = system: worms containing Punc-54::Q82::GFP+Punc-54::torsinA+Punc54::torsinA (ΔE); assay: Screen for reduction of polyglutamine protein aggregates in worms with wt and mutant torsinA; assay type: in vivo, C. elegans; conditions: differentiated by Q82::GFP lines without torsinA, with wt torsinA or with mutant torsinA
Protocol: as §3, §4
Each drug was first dissolved in an appropriate solvent, followed by adding the drug solution into pre-autoclaved media, with the volume of drug solution already taken into account. […] Each plate was seeded with 100 μl concentrated E. coli OP50 bacteria.
as §5, §6, §7

[6] = system: protein misfolding and aggregation in transgenic worms; assay: Preventative assay of protein aggregation (drug from hatching to L2 stage); assay type: in vivo, C. elegans; conditions: exposure from hatching to L2 stage; scored at L3 and young adult
Protocol: To see the preventative effects of the candidate drug compounds on protein misfolding and aggregation, five gravid adult worms were placed onto each drug plate and grown at 20° C. for approximately 3 days. 35-40 Fl worms at L2 stage were picked and transferred to a control plate with the same concentration of control solvent compared to the drug plate. Thirty worms at L3 stage were counted for aggregate number 8 hours later. Thirty young adults were analyzed 32 hours later.
To calculate the scaled effectiveness of special regimen of drugs on worms based on standardized decrease in protein aggregates. The following formula was used: (A−B)/(A−C)×100%, where
A=number of aggregates for worms growing on solvent control plates
B=number of aggregates for worms grown on the specific drug plate for the entire life of the worms
C=number of aggregates for worms that received pre-L2 exposure and were then removed to solvent control plates
If the regimen has no effect, the value would equal 0%. Conversely, if the regimen was as effective as raising the worms on the drug for their entire life, the value would equal 100%.

[7] = system: GFP::DAT-1; assay: Pdat-1::GFP::DAT-1 expression within DA neurons; assay type: in vivo, C. elegans; conditions: for Neurons with cell body and dendritic/axonal GFP: water control 70%; for Neurons with cell body and dendritic/axonal GFP / Mean pixel intensity of cell bodies ± SEM (fluorescence intensity): sodium salt; for Mean pixel intensity of cell bodies ± SEM (fluorescence intensity): water control 1970 ± 80, compounds at 1.85, 1.49, 1.86 mM
[8] = system: transgenic worms containing the transgene Pdat-1::GFP without any torsinA expression; assay: 6-OHDA dopaminergic neurodegeneration in worms without torsinA; assay type: in vivo, C. elegans; conditions: no torsinA expression
[9] = system: transgenic worm line Pdat-1::CAT-2; assay: Neurodegeneration by overexpression of cat-2 (tyrosine hydroxylase); assay type: in vivo, C. elegans
From the text: Overexpression of cat-2, the worm homologue for tyrosine hydroxylase, results in increased intraneuronal dopamine production and a characteristic loss of dopaminergic neurons in 75% of transgenic worms as compared to wild type (Cao et al., J Neurosci, 25(1):3801-3812). Co-expression of worm or human torsin proteins reduces the loss of dopaminergic neurons to a slight degree although neuronal degeneration is still present. The purpose of these experiments was to determine the effect of small molecule compounds in the Prestwick library in another different C. elegans model of neurodegeneration.
Worms were cultured using the same methods described above. A transgenic worm line expressing Pdat-1::CAT-2 expresses a phenotype that results in visible neurodegeneration at all developmental stages in an integrated line, in which only approximately 55% of 7 day old animals maintained all four CEP neurons. […] Compound 166 is an example of one such compound.
To further examine the neuroprotective effect of meclofenamic acid and lidocaine, we used a transgenic line (Pdat-1::CAT-2) we previously described (Cao et al., J Neurosci, 2005, 25(1): 3801-3812). Overexpression of cat-2, the C. elegans homolog of the tyrosine hydroxylase (“TH”) gene, causes a high level of DA production and as a result, DA neuron degeneration is observed (Cao et al., J Neurosci, 2005, 25(1): 3801-3812). […] We also tested whether meclofenamic acid was able to suppress CAT-2-induced neurodegeneration. […] Therefore, meclofenamic acid can protect DA neurons from degeneration produced by overexpression of the dopamine precursor, tyrosine hydroxylase.

[10] = system: worms expressing Punc-54::Q82::GFP+Punc-54::torsinA (ΔE) with a mutant torsinA only; assay: Protein aggregate assay in worms with mutant torsinA only; assay type: in vivo, C. elegans
Protocol: C elegans nematodes were grown at 20° C. on NGM plates as described by Brenner (Brenner, Genetics, 1974, 77: 71-94). Several transgenic C. elegans lines were used for primary screens of the Prestwick small molecule library. A transgenic worm line expressing Punc-54::Q82-GFP; with both wild type (“wt”) (Punc=54: :torsinA) or mutant (Punc-54::torsinA(ΔE)). Torsin-A expresses a phenotype that results in visible protein aggregation under fluorescent microscope. Transgenic worms were plated on drug plates and progeny were studied for a return to soluble protein. […]
as §5, §6

[11] = Pdat-1::GFP::DAT-1, listed as Meclofenamic acid sodium salt
[12] = Pdat-1::GFP::DAT-1, listed as meclofenamic acid

SMILES: CCn1cc(C(=O)O)c(=O)c2ccc(C)nc21 [Compound 187, Nalidixic Acid]
- half-life [1]: about 90 minutes
- enhanced DA neuron survival [2]: no significant neuroprotection
- enhanced wild type DA neuron survival [3]: 28.9±4.9%
- reduction of protein aggregation [4]: reduced protein aggregation
- Specificity in worm assay [5]: wt torsinA
- preventative effect on protein aggregation [6]: seem to be beneficial

SMILES: Cc1ccc(Cl)c(Nc2ccccc2C(=O)O)c1Cl [Compound 206, Meclofenamic acid sodium salt]
- enhanced DA neuron survival [2]: 25±1.2%
- Worms with no GFP ([7]; Pdat-1::GFP::DAT-1, water control 0%): 4.2%
- Neurons with cell body GFP only ([7]; Pdat-1::GFP::DAT-1, water control 30%): 51.1%^e
- Neurons with cell body and dendritic/axonal GFP [7, 11]: 44.7%^d
- Neurons with cell body and dendritic/axonal GFP [7, 12]: 44.7%
- Mean pixel intensity of cell bodies ± SEM (fluorescence intensity) [7, 11]: 1740 ± 64 A.U.
- Mean pixel intensity of cell bodies ± SEM (fluorescence intensity) [7, 12]: 1740 A.U.
- effect on GFP::DAT-1 level ([7]; result in words): can down-regulate the level of DAT-1 protein directly
- reduction of 6-OHDA-mediated neurodegeneration [8]: reduced the 6-OHDA-mediated neurodegeneration
- enhanced wild type DA neuron survival [3]: failed to show any significant neuroprotection
- preventative effect on protein aggregation [6]: seem to be beneficial
- neuroprotective effect against CAT-2-induced neurodegeneration ([9]; Pdat-1::CAT-2): 19±1.1%
- neuroprotective action on dopaminergic neurons overexpressing cat-2 ([9]; Pdat-1::CAT-2, result in words): demonstrated a reduction in the standardized decrease in dopaminergic neurodegeneration
- reduction of aggregation [10]: reduced aggregation

From US20070203079A1, “Methods of using small molecule compounds for neuroprotection” (priority 2005, published 2007)
